Experimental data reported in patent publication US8283324B2, “Immunomodulatory and anti-tumour peptides” (Centro de Ingenieria Genetica y Biotecnologia, priority 2006, dated 2012).

What was measured:
IFN-α gene = IFN-α gene expression in human mononuclear cells (RT-PCR); assay type: cell-based; conditions: 40 μg/ml, 18 h
Method: (§1) For this assay, human mononuclear cells were isolated by a Ficoll-Hypaque gradient from a leukocyte concentrate or “Buffy Coat” of a donor. Up to 5×10^6 were seeded in 24-well plates in RPMI 1640 medium supplemented with 10% calf fetal serum. Each peptide was further added at 40 μg/ml in a 0.1 ml volume of RPMI medium and cells were cultured for 18 h at 37° C. and 5% of CO2. Total RNA was extracted by using the TriReagent method. Afterwards, the expressions of IFN-α, IFN-γ and IL-12 genes were determined by the reverse transcription reaction and PCR amplification (RT-PCR kit, Perkin Elmer). Results are shown as relative amounts of messenger RNA normalized against expression levels of the β-actin housekeeping gene.

IL-12 gene = IL-12 gene expression in human mononuclear cells (RT-PCR); assay type: cell-based; conditions: 40 μg/ml, 18 h; mRNA normalized against β-actin; FIG. 3A
Method: as §1

TC-1 tumor cells [1] = experiment: anti-tumoral effect in the TC-1 tumor model; assay type: in vivo; conditions: 4 mg per kg s.c.
Method: Eight-to-ten weeks-old C57BI/6 female mice were used for this assay (n=10 animals per experimental group). For tumor graft, TC-1 tumor cells derived from C57BI/6 malignant epithelial lung cells were used, being resuspended in phosphate-buffered saline (PBS). An amount of 50,000 cells in a 200 μl volume was inoculated to mice by subcutaneous route in the right hind limb. The first peptide administration was carried out by subcutaneous route in the right flank once tumor reached a 100 mm^3 volume, and the second was carried out after 10 days. In this assay, a 4 mg per kg of weight dose was evaluated (80 μg/mice). Animal survival and tumor mass were the parameters evaluated to measure the anti-tumoral effect peptides of interest, as shown in FIGS. 4A and 4B. […] The Log Rank method was used as statistical analysis for detecting significant differences between groups.

TC-1 tumor cells [2] = experiment: prophylactic schedule of treatment in the TC-1 tumor model; assay type: in vivo; conditions: 4 mg/kg, two injections before inoculation of TC-1 cells
Method: Eight-to-ten weeks-old C57BI/6 female mice were used for this assay (n=10 animals per experimental group). For tumor graft, TC-1 tumor cells, being resuspended in phosphate-buffered saline (PBS). Mice were first injected with the L-2 peptide (4 mg of peptide/kg of body weight). After 7 days, they received a second injection of the same dose; after 14 days of the first peptide injection, animals were inoculated with 50,000 cells in a 200 μl volume by subcutaneous route in the right hind limb. Parameters evaluated for measuring the anti-tumoral effect of the peptide included the time for tumor grafting (FIG. 6A) and the survival of animals (FIG. 6B).

TC-1 cells = experiment: double challenge schedule with TC-1 tumor cells; assay type: in vivo; conditions: second challenge, day 49 after the first challenge
Method: Animals without established tumors in the schedule of the previous example (n=6) were further challenged for a second time with 50,000 TC-1 cells in a 200 μl volume in PBS by subcutaneous route in the left hind limb (day 49 after the first challenge). The same amount of tumor cells were inoculated to “naïve” mice from the same litter as control group of the experiment, to guarantee the homogeneity in age, and were kept under the same conditions without receiving the peptide (n=10 animals). Parameters evaluated to measure the anti-tumoral effect of the L-2 peptide included the time of tumor grafting and animal survival.

[3] = tested on: mice lung cancer 3LLD122 cells; experiment: metastasis model of Lewis' carcinoma; assay type: in vivo, C57BI/6 female mice; conditions: 4 mg/kg s.c. after 7 days; sacrifice 21 days after removal of primary tumor; FIG. 8
Method: Eight-to-ten weeks-old C57BI/6 female mice were used for this assay (n=8 animals per experimental group). These animals were inoculated in the posterior right footpad with 250,000 mice lung cancer 3LLD122 cells. After 7 days, a 4 mg/kg of body weight dose of the L-2 analogous peptide was subcutaneously injected. When tumors reached 8 mm in diameter, the primary tumor was surgically removed from the carrier leg. Mice were sacrificed 21 days after this surgical procedure. Lungs were weighed to indicate the amount of metastasis on them.

[4] = at 100 mm^3 tumor volume and after 10 days, FIG. 4

Sequence: HARIKPTFRRLKWKYKGKFW [Peptide L-2, alanine-substituted analogue of LALF 32-51]
- expression of the IFN-α gene compared to the LALF32-51 peptide (IFN-α gene; FIG. 3B): more effective
- expression of the IFN-α gene (IFN-α gene; mRNA normalized against β-actin, FIG. 3A): capable of inducing the expression
- expression of the IL-12 gene (IL-12 gene): capable of inducing the expression
- survival of mice (TC-1 tumor cells [1]; [4]): prolonging survival of mice
- tumor progression (tumor mass) (TC-1 tumor cells [1]; [4]): effective for inhibiting tumor progression
- survival of animals compared to the LALF32-51 peptide (TC-1 tumor cells [1]; Log Rank, *p<0.05): significantly increase the survival of animals
- time for tumor grafting (TC-1 tumor cells [2]; FIG. 6A): effective to prevent the development of the tumor
- survival of animals (TC-1 tumor cells [2]; FIG. 6B): increased the survival of the animals
- time of tumor grafting (TC-1 cells; FIG. 7A): retarding the establishment of the tumor
- animal survival (TC-1 cells; FIG. 7B): increasing animal survival
- metastasis (lung weight) [3]: able to reduce the metastatic tumor events
